# From patent publication US9029370B2, “Substituted benzamide derivatives” (Hoffmann-La Roche Inc., priority 2011, dated 2015)
# Structures can show the parent of a compound that is named as a salt.
# Key:
# rat TAAR1 = rat TAAR1 (Rattus norvegicus (Rat), UniProt Q923Y9); test: Radioligand binding assay on rat TAAR1; settings: rat TAAR1, HEK-293 membranes; second value of the pair (line below); read-out: Ki (μM) mouse/rat
# Experimental: (§1) For the construction of expression plasmids the coding sequences of human, rat and mouse TAAR 1 were amplified from genomic DNA essentially as described by Lindemann et al.. The Expand High Fidelity PCR System (Roche Diagnostics) was used with 1.5 mM Mg^2+ and purified PCR products were cloned into pCR2.1-TOPO cloning vector (Invitrogen) following the instructions of the manufacturer. PCR products were subcloned into the pIRESneo2 vector (BD Clontech, Palo Alto, Calif.), and expression vectors were sequence verified before introduction in cell lines.
# (§2) HEK293 cells (ATCC # CRL-1573) were cultured essentially as described by Lindemann et al. (2005). For the generation of stably transfected cell lines HEK293 cells were transfected with the pIRESneo2 expression plasmids containing the TAAR coding sequences (described above) with Lipofectamine 2000 (Invitrogen) according to the instructions of the manufacturer, and 24 hrs post transfection the culture medium was supplemented with 1 mg/ml G418 (Sigma, Buchs, Switzerland). After a culture period of about 10 d clones were isolated, expanded and tested for responsiveness to trace amines (all compounds purchased from Sigma) with the cAMP Biotrak Enzyme immunoassay (EIA) System (Amersham) following the non-acetylation EIA procedure provided by the manufacturer.
# Radioligand Binding Assay on Rat TAAR1
# (§3) Membrane Preparation and Radioligand Binding.
# (§4) HEK-293 cells stably expressing rat TAAR1 were maintained at 37° C. and 5% CO2 in DMEM high glucose medium, containing fetal calf serum (10%, heat inactivated for 30 min at 56° C.), penicillin/streptomycin (1%), and 375 μg/ml geneticin (Gibco). Cells were released from culture flasks using trypsin/EDTA, harvested, washed twice with ice-cold PBS (without Ca^2+ and Mg^2+), pelleted at 1′000 rpm for 5 min at 4° C., frozen and stored at −80° C. […] The homogenate was centrifuged at 48′000×g for 30 min at 4° C. Subsequently, the supernatant was removed and discarded, and the pellet resuspended in 20 ml HEPES-NaOH (20 mM, pH 7.4) containing 0.1 mM EDTA using the Polytron (20 s at 14′000 rpm). This procedure was repeated and the final pellet resuspended in HEPES-NaOH containing 0.1 mM EDTA and homogenized using the Polytron. Typically, aliquots of 2 ml membrane portions were stored at −80° C. With each new membrane batch the dissociation constant (Kd) was determined via a saturation curve. […] Nonspecific binding was defined as the amount of ^3[H]-(S)-4-[(ethyl-phenyl-amino)-methyl]-4,5-dihydro-oxazol-2-ylamine bound in the presence of 10 μM unlabeled ligand. All compounds were tested at a broad range of concentrations (10 pM to 10 μM) in duplicates. […] The 96 deep well plates were incubated for 1 hr at 4° C. Incubations were terminated by rapid filtration through Unifilter-96 plates (Packard Instrument Company) and glass filters GF/C (Perkin Elmer) presoaked for 1 hr in polyethylenimine (0.3%) and washed 3 times with 1 ml of cold binding buffer. After addition of 45 μl of Microscint 40 (PerkinElmer) the Unifilter-96 plate was sealed and after 1 hr the ratioactivity counted using a TopCount Microplate Scintillation Counter (Packard Instrument Company).
# mouse TAAR1 = mouse TAAR1 (Mus musculus (Mouse), UniProt Q923Y8); test: Radioligand binding assay on mouse TAAR1; settings: mouse TAAR1, HEK-293 membranes; first value of the pair (before the slash); read-out: Ki (μM) mouse/rat
# Experimental: as §1, §2
# Radioligand Binding Assay on Mouse TAAR1
# as §3
# as §4, with “expressing mouse” for “expressing rat”
# Chain of rat TAAR1 (Q923Y9 whole entry): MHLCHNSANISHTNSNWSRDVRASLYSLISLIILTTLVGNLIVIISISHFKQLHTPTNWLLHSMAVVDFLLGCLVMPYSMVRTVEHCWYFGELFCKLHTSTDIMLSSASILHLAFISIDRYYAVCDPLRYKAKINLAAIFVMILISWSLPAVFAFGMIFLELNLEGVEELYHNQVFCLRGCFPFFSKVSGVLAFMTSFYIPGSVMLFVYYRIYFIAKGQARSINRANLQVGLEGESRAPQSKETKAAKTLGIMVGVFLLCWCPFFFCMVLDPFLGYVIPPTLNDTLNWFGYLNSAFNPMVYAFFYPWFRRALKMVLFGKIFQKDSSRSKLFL
# Chain of mouse TAAR1 (Q923Y8 whole entry): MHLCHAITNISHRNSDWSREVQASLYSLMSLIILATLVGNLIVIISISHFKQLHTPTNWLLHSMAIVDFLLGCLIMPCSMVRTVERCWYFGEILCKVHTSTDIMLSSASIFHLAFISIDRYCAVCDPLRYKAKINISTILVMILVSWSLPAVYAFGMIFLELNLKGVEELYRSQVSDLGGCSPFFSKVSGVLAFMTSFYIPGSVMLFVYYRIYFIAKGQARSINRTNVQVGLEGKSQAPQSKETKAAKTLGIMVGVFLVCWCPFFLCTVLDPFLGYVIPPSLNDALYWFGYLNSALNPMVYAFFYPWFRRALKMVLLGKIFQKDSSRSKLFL
Ki (rat TAAR1),Ki (mouse TAAR1),SMILES
0.111 µM,0.0082 µM,"O=C(Nc1ccc([C@@H]2CNCCO2)cc1Cl)c1ccc(Cl)nc1 [Example 35, (R)-6-Chloro-N-(2-chloro-4-(morpholin-2-yl)phenyl)nicotinamide]"
0.488 µM,0.0139 µM,"O=C(Nc1ccc([C@H]2CNCCO2)cc1Cl)c1ccc(Cl)nc1 [Example 36, (S)-6-Chloro-N-(2-chloro-4-(morpholin-2-yl)phenyl)nicotinamide]"
0.12 µM,0.0043 µM,"Cc1cc([C@@H]2CNCCO2)ccc1NC(=O)Nc1ccc(Cl)nc1 [Example 40, (R)-1-(6-Chloropyridin-3-yl)-3-(2-methyl-4-(morpholin-2-yl)phenyl)urea]"
3.99 µM,0.028 µM,"Cc1cc([C@@H]2CNCCO2)ccc1NC(=O)c1ccc(Cl)nc1 [Example 42, 6-Chloro-N—((R)-2-methyl-4-morpholin-2-yl-phenyl)-nicotinamide]"
0.0012 µM,0.002 µM,"N#Cc1ccc(OC(F)F)c(NC(=O)Nc2ccc([C@@H]3CNCCO3)cc2Cl)c1 [Example 47, (R)-1-(2-Chloro-4-(morpholin-2-yl)phenyl)-3-(5-cyano-2-(difluoromethoxy)phenyl)urea]"
0.0018 µM,0.0022 µM,"N#Cc1ccc(OC(F)F)c(NC(=O)Nc2ccc([C@H]3CNCCO3)cc2Cl)c1 [Example 48, (S)-1-(2-Chloro-4-(morpholin-2-yl)phenyl)-3-(5-cyano-2-(difluoromethoxy)phenyl)urea]"
0.0015 µM,0.0021 µM,"O=C(Nc1ccc(C(F)(F)F)nc1)Nc1ccc([C@@H]2CNCCO2)cc1Cl [Example 49, (R)-1-(2-Chloro-4-(morpholin-2-yl)phenyl)-3-(6-(trifluoromethyl)pyridin-3-yl)urea]"
0.0014 µM,0.0018 µM,"O=C(Nc1ccc(C(F)(F)F)nc1)Nc1ccc([C@H]2CNCCO2)cc1Cl [Example 50, (S)-1-(2-Chloro-4-(morpholin-2-yl)phenyl)-3-(6-(trifluoromethyl)pyridin-3-yl)urea]"
0.0126 µM,0.0067 µM,O=C(Nc1cnc(C(F)(F)F)nc1)Nc1ccc([C@H]2CNCCO2)cc1Cl [Example 51]
0.0058 µM,0.0049 µM,"O=C(Nc1cnc(C(F)(F)F)nc1)Nc1ccc([C@@H]2CNCCO2)cc1Cl [Example 52, 1-((R)-2-Chloro-4-morpholin-2-yl-phenyl)-3-(2-trifluoromethyl-pyrimidin-5-yl)-urea]"
0.0017 µM,0.0015 µM,"O=C(Nc1ccc(C(F)(F)F)cn1)Nc1ccc([C@H]2CNCCO2)cc1Cl [Example 53, (S)-1-(2-Chloro-4-(morpholin-2-yl)phenyl)-3-(5-(trifluoromethyl)pyridin-2-yl)urea]"
0.0018 µM,0.003 µM,"O=C(Nc1ccc(C(F)(F)F)cn1)Nc1ccc([C@@H]2CNCCO2)cc1Cl [Example 54, (R)-1-(2-Chloro-4-(morpholin-2-yl)phenyl)-3-(5-(trifluoromethyl)pyridin-2-yl)urea]"
0.0127 µM,0.0039 µM,"COc1ccc(C#N)cc1NC(=O)Nc1ccc([C@@H]2CNCCO2)cc1Br [Example 57, 1-((R)-2-Bromo-4-morpholin-2-yl-phenyl)-3-(5-cyano-2-methoxy-phenyl)-urea]"
0.0161 µM,0.0038 µM,"COc1ccc(C#N)cc1NC(=O)Nc1ccc([C@H]2CNCCO2)cc1Br [Example 58, 1-((S)-2-Bromo-4-morpholin-2-yl-phenyl)-3-(5-cyano-2-methoxy-phenyl)-urea]"
0.001 µM,0.0018 µM,"N#Cc1cc(F)cc(NC(=O)Nc2ccc([C@@H]3CNCCO3)cc2F)c1 [Example 59, 1-(3-Cyano-5-fluoro-phenyl)-3-((R)-2-fluoro-4-morpholin-2-yl-phenyl)-urea]"
0.001 µM,0.0008 µM,"N#Cc1ccc(OC(F)F)c(NC(=O)Nc2ccc([C@@H]3CNCCO3)cc2Br)c1 [Example 60, 1-((R)-2-Bromo-4-morpholin-2-yl-phenyl)-3-(5-cyano-2-difluoromethoxy-phenyl)-urea]"
0.0025 µM,0.0018 µM,"N#Cc1ccc(OC(F)F)c(NC(=O)Nc2ccc([C@H]3CNCCO3)cc2Br)c1 [Example 61, 1-((S)-2-Bromo-4-morpholin-2-yl-phenyl)-3-(5-cyano-2-difluoromethoxy-phenyl)-urea]"

SMILES,Ki (rat TAAR1),Ki (mouse TAAR1)
"O=C(Nc1ccc([C@H]2CNCCO2)cc1Cl)c1ccn(-c2ccc(F)cc2)n1 [Example 29, (S)—N-(2-Chloro-4-(morpholin-2-yl)phenyl)-1-(4-fluorophenyl)-1H-pyrazole-3-carboxamide]",0.0036 µM,0.0017 µM
"O=C(Nc1ccc([C@@H]2CNCCO2)cc1Cl)c1ccn(-c2ccc(F)cc2)n1 [Example 30, (R)—N-(2-Chloro-4-(morpholin-2-yl)phenyl)-1-(4-fluorophenyl)-1H-pyrazole-3-carboxamide]",0.0012 µM,0.032 µM
"O=C(Nc1ccc([C@H]2CNCCO2)cc1Cl)c1ccc(Cl)cc1 [Example 34, (S)-4-Chloro-N-(2-chloro-4-(morpholin-2-yl)phenyl)benzamide]",0.0229 µM,0.0024 µM
"COc1ccc(C#N)cc1NC(=O)Nc1ccc([C@H]2CNCCO2)cc1F [Example 39, (S)-1-(5-Cyano-2-methoxyphenyl)-3-(2-fluoro-4-(morpholin-2-yl)phenyl)urea hydrochloride]",0.0085 µM,0.003 µM
"COc1ccc(C#N)cc1NC(=O)Nc1ccc([C@@H]2CNCCO2)cc1Cl [Example 45, (R)-1-(2-Chloro-4-(morpholin-2-yl)phenyl)-3-(5-cyano-2-methoxyphenyl)urea]",0.0044 µM,0.0023 µM
"COc1ccc(C#N)cc1NC(=O)Nc1ccc([C@H]2CNCCO2)cc1Cl [Example 46, (S)-1-(2-Chloro-4-(morpholin-2-yl)phenyl)-3-(5-cyano-2-methoxyphenyl)urea]",0.0064 µM,0.0016 µM
"O=C(Nc1ccc(Cl)cn1)Nc1ccc([C@@H]2CNCCO2)cc1Cl [Example 55, (R)-1-(2-Chloro-4-(morpholin-2-yl)phenyl)-3-(5-chloropyridin-2-yl)urea]",0.0014 µM,0.0012 µM
"N#Cc1ccc(F)c(NC(=O)Nc2ccc([C@@H]3CNCCO3)cc2F)c1 [Example 56, 1-(5-Cyano-2-fluoro-phenyl)-3-((R)-2-fluoro-4-morpholin-2-yl-phenyl)-urea]",0.0035 µM,0.002 µM
"N#Cc1cccc(NC(=O)Nc2ccc([C@@H]3CNCCO3)cc2F)c1F [Example 62, (R)-1-(3-Cyano-2-fluorophenyl)-3-(2-fluoro-4-(morpholin-2-yl)phenyl)urea]",0.0028 µM,0.0031 µM
